Test results taken from patent US12527835B2, “Brevican-binding peptides for brain tumor imaging” (The Brigham and Women's Hospital, Inc., priority 2018, dated 2026).
Where a SMILES comes first, the peptide text is derived from it. Where no end group is shown, it is not given here. [ ]: non-standard residue; d: D form. Ahx = NCCCCCC(=O)O

Legend:
[1] = target: T1, recombinant BΔg protein (deglycosylated brevican) (Homo sapiens, UniProt Q96GW7); assay: Octet steady state binding affinity to recombinant BΔg
T1 construct: purchased R&D Systems 4009-BC-050
T1 sequence (Q96GW7 23-911): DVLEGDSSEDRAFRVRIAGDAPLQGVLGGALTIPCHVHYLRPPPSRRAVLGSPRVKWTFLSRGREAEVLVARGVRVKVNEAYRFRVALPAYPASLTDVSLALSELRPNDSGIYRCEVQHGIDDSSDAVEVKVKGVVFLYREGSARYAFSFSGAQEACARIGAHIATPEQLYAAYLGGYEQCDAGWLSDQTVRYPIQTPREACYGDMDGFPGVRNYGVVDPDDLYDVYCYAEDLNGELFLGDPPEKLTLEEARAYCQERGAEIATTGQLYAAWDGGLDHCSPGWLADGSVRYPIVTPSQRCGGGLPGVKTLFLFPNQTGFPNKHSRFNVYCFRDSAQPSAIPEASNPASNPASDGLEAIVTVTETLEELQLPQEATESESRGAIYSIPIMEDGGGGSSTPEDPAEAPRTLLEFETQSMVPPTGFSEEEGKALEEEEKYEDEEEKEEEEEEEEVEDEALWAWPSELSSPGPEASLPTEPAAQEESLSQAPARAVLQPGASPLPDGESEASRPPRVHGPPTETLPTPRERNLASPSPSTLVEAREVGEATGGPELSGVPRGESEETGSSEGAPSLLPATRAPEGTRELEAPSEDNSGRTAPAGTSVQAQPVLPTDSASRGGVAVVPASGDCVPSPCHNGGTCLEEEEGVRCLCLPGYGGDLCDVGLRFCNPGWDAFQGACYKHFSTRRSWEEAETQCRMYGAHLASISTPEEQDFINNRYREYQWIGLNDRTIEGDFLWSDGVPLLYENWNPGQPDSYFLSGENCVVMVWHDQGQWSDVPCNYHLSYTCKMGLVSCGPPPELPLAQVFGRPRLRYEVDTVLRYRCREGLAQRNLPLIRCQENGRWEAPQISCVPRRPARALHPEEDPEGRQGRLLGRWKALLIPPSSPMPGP
Experimental: A ForteBio OctetRed384 instrument was used to study the binding kinetics of each peptide to recombinant human brevican (re-suspended in PBS and 0.1 mM EDTA, pH 6.8). The brevican protein was deglycosylated prior to experimental use in water+0.05% tween, PI, sialidase, 0-glycosidase, N-glycosidase in sodium acetate [200 mM], NaCl [250 mM], Tris-HCl [200 mM], pH 7.5.) in the presence of protease inhibitor overnight at 4° C. (this entire composition will be referred to as ‘de-glycosylation buffer’). […] The final volume for all the solutions was 80 μl/well. Assays were performed at 30° C. in solid black 384-well plates (Geiger Bio-One). Prior to beginning, Ni-NTA biosensors were soaked for 10 min in working buffer. Before loading the protein onto each biosensor, a baseline was established in working buffer for 60 s. Deglycosylated brevican (50 μg/ml BΔg; His-tagged) was loaded on the surface of each biosensors for 180 s. […] Reference biosensors were also included in the plate as internal controls, where biosensors were exposed to the ‘de-glycosylation buffer’ lacking brevican protein during the loading step. A 60 s biosensor washing step was applied. Then, biosensors were exposed to the analyte (peptide) in working buffer (ranging between 0-10 μM BTP) for 300 s during the ‘association’ step. Finally, the biosensors were exposed to working buffer (without peptide) during the ‘dissociation’ step for 600 s. Binding affinity of each peptide was assessed through steady state analysis, where the response unit was plotted over peptide concentration. All data was plotted and curves were fitted using the non-linear ‘one-site specific binding’ fit, and the dissociation constant (KD) value was calculated using the GraphPad Prism software.
Binding kinetics analyses were performed using the Octet RED platform (Forte Bio) to measure the binding affinity of BTP-7, 8 and 9 to purified recombinant BΔg protein.

HEK-Bcan cells [2] = assay: Flow cytometry blocking study with 50× molar excess of unlabeled peptide; type: cell-based, human; conditions: fluorescein-conjugated peptide 1 μM
Experimental: (§1) Cells were washed once with PBS and then, treated with 1 mL of 2.5 mM EDTA to dissociate the cells. The EDTA was removed by centrifugation, and PBS supplemented with 10% FBS was added to create a single-cell suspension. All peptide stocks were dissolved in DMSO, and stored at −20° C. in the dark. Cells were incubated with each peptide (at the desired final concentration, between 1-10 μM) for 3 hrs at 37° C. in the dark under constant rotation. After incubation, cells were washed 3× with PBS with 10% FBS (by centrifugation at 7000 rpm for 3 mins each). Then, cells were resuspended in 3.7% formaldehyde for fixation, and finally washed once with PBS. Cells were evaluated for peptide uptake (mean fluorescence intensity) by flow cytometry (10,000-20,000 events).
For blocking studies, cells were dissociated as described above and resuspended in cold PBS with 10% FBS. Cells were then incubated with a 50× molar excess of unlabeled peptide for 10 mins on ice, before adding the corresponding FITC-labeled peptide at a final concentration of 1 μM and incubated for 1.5 hrs on ice. Cells were then washed with cold PBS with 10% FBS, fixed and analyzed by flow cytometry.

BT188 glioma stem cells = assay: Peptide uptake in BT188 (BΔg-high) versus BT145 (BΔg-low) glioma stem cells, fluorescence imaging; type: cell-based, human; conditions: fluorescein-labeled peptides, 5 μM
Source text: FIGS. 3A-I. Peptide characterization for BΔg specificity in glioma stem cells. (a) Table summary listing the properties of 7 peptides (composed of 8 D-amino acid residues, SEQ ID NOs:3-9, in order of appearance) that were isolated from the OBOC library screen. MW=molecular weight; KD=Kyte-Doolittle scale for amino acid hydropathy (positive scores indicate […]) (Kyte and Doolittle, J. Mol. Biol. 157, 105-132 (1982)). (b) Chemical structure showing the linkage between the peptide and FITC. (c) Western blot analysis showing the level of BΔg and Bcan in human embryo kidney (HEK) cells, and Bcan-overexpressing HEK cells (HEK-Bcan). […] Each group was normalized to a no-blocking (vehicle) control. Statistics were performed using multiple t-tests, and significance was measured in comparison to each vehicle control (p<0.0001). (e) Uptake of fluorescein-labeled BTP-2, 7, 8, 9, and 10 (at 5 μM conc.) in BT188 (BΔg-high) or BT145 (BΔg-low) glioma stem cells (GSCs). Western blot analysis on the top right confirms the BΔg expression level. […] Statistics were performed using the two-way ANOVA and Tukey's Multiple Comparison test. (f) Chemical structure showing the linkage between the peptide and Cy5.5 dye. (g) Western blot analysis showing the expression of BΔg in GBM-6 cells, with negligible BΔg level in astrocytes or neural progenitor cells (NPC). (h) Graph showing the cell uptake ranking of the top 3 peptide candidates, BTP-7, 8 and 9 in GBM-6 cells as determined by flow cytometry analysis with s.d. error bars (5 μM conc.; nevents=20,000 cells; nexperiment=5). Each group is normalized to the control scramble peptide (Scr-8). Statistics were performed using the one-way ANOVA and Tukey's Multiple Comparison test (significance were measured in comparison to the Scr-8 control). (i) Bar graph showing the uptake of BTP-7, 8 and 9 in GBM-6 cells and NPC with 95% confidence interval error bars (1 μM conc.; nevents=20,000 cells). Statistics were performed using the two-way ANOVA and Sidak's Multiple Comparison test.

HEK-Bcan cells [3] = assay: Flow cytometry cell uptake, HEK-Bcan versus regular HEK cells; type: cell-based, human; conditions: Cy5.5-conjugated peptides, 5 μM
Experimental: as §1

GBM-6 cells = assay: Flow cytometry cell uptake in GBM-6 cells; type: cell-based, human; conditions: Cy5.5-conjugated peptides; for uptake in GBM-6 cells at 4° C. compared to 37° C.: 5 μM, inhibition of endocytosis
Experimental: as §1

Row | Compound | Kd [1] [µM] | uptake in HEK-Bcan cells in the presence of the blocking peptide (HEK-Bcan cells [2]) | size of the difference in uptake between BT188 and BT145 GSCs (ranking) (BT188 glioma stem cells) | uptake in BT188 GSCs compared with BT145 GSCs (BT188 glioma stem cells) | uptake in HEK-Bcan cells compared with regular HEK cells (HEK-Bcan cells [3]) | uptake in GBM-6 GSCs compared with astrocytes (GBM-6 cells) | uptake in GBM-6 cells at 4° C. compared to 37° C. (GBM-6 cells)
1 | CC[C@@H](C)[C@@H](NC(=O)[C@@H](C)NC(=O)[C@@H](CCCNC(=N)N)NC(=O)[C@@H](CCC(N)=O)NC(=O)[C@@H](CCCNC(=N)N)NC(=O)[C@@H](CCCNC(=N)N)NC(=O)[C@@H](CC(=O)O)NC(=O)[C@@H](C)N)C(N)=O [BTP-9] (H-[dA][dD][dR][dR][dQ][dR][dA][dI]-NH2; N-terminus and C-terminus assumed) | 1.5 | reduced uptake | largest and most significant difference | greater uptake | – | – | –
2 | BTP-8-Cy5.5 ([dT][dI][dR][dK][dL][dV][dR][dH]-{Ahx-Pra(Cy5.5)-NH2}) | – | – | – | – | significantly higher | significantly higher | significantly reduced
3 | BTP-9-Cy5.5 ([dA][dD][dR][dR][dQ][dR][dA][dI]-{Ahx-Pra(Cy5.5)-NH2}) | – | – | – | – | significantly higher | significantly higher | significantly reduced
4 | BTP-10: BΔg-targeting peptide of 8 D-amino acid residues from OBOC screen; sequence only in FIG. 3A ([dS][dH][dW][dA][dV][dN][dR][dF]; not fully specified) | – | reduced uptake | – | – | – | – | –
